Assay results reported in ChEMBL document CHEMBL1201862, “PubChem BioAssay data set” (2004).
Each block holds one compound with its values, some of them ahead of it. Calls of active or inactive are those of the source.

Columns and labels:
Exodeoxyribonuclease V = biological target: T1, Exodeoxyribonuclease V (Escherichia coli (strain K12), UniProt P04993+P07648+P08394); experiment: E. coli RecBCD inhibitors, dose response, counter-screen for AddAB inhibitor project, absorbance, V66 E. coli, mutant T4 phage (AID 492957); assay type: functional, cell-based, Escherichia coli str. K-12 substr. MG1655
T1 sequence (P04993 whole entry): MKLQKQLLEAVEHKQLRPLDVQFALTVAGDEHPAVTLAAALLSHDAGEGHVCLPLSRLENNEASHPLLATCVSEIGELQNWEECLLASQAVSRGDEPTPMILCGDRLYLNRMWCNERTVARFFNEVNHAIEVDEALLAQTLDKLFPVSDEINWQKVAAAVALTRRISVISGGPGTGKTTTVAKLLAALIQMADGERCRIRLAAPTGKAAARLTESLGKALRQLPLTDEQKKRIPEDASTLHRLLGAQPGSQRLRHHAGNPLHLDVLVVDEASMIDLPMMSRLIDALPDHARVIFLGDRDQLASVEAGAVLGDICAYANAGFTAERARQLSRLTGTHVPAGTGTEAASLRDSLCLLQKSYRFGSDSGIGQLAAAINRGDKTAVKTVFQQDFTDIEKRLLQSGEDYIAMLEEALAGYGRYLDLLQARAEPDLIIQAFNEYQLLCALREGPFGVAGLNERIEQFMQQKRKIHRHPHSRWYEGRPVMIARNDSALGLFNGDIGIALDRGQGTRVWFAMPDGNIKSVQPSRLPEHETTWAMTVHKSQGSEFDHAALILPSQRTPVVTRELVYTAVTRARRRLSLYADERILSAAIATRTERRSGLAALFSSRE
T1 sequence (P07648 whole entry): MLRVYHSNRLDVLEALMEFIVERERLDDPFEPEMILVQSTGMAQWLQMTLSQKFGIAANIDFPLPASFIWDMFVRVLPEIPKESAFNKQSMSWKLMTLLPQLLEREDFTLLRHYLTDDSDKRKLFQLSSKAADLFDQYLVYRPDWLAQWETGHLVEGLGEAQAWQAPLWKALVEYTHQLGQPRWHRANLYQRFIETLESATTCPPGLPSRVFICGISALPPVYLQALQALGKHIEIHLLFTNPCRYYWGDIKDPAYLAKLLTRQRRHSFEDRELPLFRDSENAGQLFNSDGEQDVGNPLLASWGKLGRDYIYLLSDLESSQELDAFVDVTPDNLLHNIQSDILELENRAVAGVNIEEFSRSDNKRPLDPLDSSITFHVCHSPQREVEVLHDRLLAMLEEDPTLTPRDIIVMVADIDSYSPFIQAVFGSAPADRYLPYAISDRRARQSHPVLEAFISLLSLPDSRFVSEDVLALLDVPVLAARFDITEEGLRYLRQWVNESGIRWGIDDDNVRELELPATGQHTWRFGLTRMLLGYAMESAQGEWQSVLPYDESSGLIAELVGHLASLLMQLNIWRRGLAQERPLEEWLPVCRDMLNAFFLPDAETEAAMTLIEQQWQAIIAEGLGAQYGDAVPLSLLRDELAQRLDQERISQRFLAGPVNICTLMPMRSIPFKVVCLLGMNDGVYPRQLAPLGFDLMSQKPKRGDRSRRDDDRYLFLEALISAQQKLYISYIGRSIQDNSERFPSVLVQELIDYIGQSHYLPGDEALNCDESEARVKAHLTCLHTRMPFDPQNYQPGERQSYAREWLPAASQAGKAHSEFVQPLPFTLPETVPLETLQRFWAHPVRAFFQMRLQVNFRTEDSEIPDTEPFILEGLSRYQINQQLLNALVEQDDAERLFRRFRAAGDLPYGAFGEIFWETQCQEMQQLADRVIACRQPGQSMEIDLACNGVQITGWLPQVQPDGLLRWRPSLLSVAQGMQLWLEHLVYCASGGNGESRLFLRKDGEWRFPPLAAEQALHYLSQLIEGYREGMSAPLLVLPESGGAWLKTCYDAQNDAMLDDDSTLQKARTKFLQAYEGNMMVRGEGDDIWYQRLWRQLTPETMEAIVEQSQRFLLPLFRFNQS
T1 sequence (P08394 whole entry): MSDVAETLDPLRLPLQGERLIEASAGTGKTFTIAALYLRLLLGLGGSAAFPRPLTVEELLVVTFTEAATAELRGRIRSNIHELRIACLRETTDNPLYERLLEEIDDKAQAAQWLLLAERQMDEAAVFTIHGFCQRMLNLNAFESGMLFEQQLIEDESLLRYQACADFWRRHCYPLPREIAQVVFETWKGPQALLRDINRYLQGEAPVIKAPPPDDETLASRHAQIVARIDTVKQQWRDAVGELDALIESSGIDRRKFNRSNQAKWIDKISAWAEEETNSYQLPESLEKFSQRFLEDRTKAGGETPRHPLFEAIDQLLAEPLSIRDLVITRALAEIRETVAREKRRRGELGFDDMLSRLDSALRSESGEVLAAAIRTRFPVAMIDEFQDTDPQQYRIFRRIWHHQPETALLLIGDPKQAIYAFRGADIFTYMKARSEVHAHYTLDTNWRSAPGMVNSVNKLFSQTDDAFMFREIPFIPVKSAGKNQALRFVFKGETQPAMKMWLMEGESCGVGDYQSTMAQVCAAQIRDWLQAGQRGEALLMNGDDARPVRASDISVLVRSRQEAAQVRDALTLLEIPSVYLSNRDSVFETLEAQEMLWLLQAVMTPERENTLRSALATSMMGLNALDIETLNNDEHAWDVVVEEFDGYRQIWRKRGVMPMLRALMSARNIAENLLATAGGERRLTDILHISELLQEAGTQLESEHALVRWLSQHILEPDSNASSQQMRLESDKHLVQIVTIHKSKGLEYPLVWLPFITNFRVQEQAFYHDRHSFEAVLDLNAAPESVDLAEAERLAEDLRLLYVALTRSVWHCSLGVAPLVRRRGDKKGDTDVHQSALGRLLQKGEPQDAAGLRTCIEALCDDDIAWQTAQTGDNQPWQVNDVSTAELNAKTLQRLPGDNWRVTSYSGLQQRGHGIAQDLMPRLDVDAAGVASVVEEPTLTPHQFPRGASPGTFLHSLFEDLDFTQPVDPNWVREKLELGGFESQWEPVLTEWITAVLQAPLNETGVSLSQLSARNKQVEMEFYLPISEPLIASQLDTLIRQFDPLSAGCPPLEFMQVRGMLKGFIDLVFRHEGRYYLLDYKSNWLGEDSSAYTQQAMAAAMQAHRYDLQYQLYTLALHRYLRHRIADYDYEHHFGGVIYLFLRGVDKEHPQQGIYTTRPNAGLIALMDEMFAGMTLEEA

cells = assay type: functional, cell-based
[1] = biological target: Mitogen-activated protein kinase 14 (Homo sapiens, UniProt Q16539); assay type: functional;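 also: part of a kinome-wide panel, MAPK14 entry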
Chain of Mitogen-activated protein kinase 14 (Q16539 whole entry): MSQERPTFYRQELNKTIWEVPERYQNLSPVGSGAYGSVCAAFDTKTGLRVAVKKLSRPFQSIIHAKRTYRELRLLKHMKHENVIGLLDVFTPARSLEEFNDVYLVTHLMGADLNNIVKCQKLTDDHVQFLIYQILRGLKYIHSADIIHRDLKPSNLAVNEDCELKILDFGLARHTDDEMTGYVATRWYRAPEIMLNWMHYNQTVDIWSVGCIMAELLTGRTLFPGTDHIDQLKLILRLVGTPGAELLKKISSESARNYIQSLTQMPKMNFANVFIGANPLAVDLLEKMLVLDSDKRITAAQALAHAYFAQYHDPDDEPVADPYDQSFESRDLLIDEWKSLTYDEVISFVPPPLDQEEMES

[2] = Counterscreen for antagonists of the orexin 1 receptor (OX1R; HCRTR1): Fluorescence-based cell-based high throughput dose response assay to identify antagonists of the parental CHO cell line. [Related pubchem assays (depositor defined):AID434989, AID435008, AID463079, AID485270, AID492963, AID492964, AID492965, AID493232, AID504699, AID504701]; assay type: functional
[3] = HEK293T cytotoxicity, dose response, cytotoxicity control for miR-122 modulator project, cell-based, inhibitor set, cherry-pick, set 2 (AID 720697); assay type: functional

Compound: CCCC(=O)NC(c1cccs1)c1cc(Cl)c2cccnc2c1O (stereo not given)
- IC50 (Exodeoxyribonuclease V): > 119 µM (inactive)
- EC50 (cells): 24.4 µM (active)

- Ki [1]: > 3.98 µM (inactive)
Compound: O=C(Nc1cccc(C2Nc3ccc4ccccc4c3C3C=CCC32)c1)c1ccc(F)cc1 (stereo not given)

Compound: Cc1ccc(C(=O)OCn2ncc(Cl)c(Cl)c2=O)cc1
- IC50 [2]: > 49.7 µM (inactive)
- AC50 [3]: 4.05 µM (active)
